The values below are quoted from earlier work in patent US20260144769A1, “4-PHENYLBUTYRATE RESTORED GABA UPTAKE AND REDUCED SEIZURES IN SLC6A1 VARIANT-MEDIATED DISORDERS” (Vanderbilt University, priority 2022, published 2026).

The conditions of the data set: SLC6A1 mutation mediated disorders; cited from earlier work.

Regarding `CCCC(CCC)C(=O)O` [Valproic acid], the cognition entry is given as “could not improve cognition” and the seizure control entry is reported as “control seizures”.
